The values that follow are results of earlier work, collected in US20250346572A1, “NON-ACID INHIBITORS OF INOSITOL HEXAKISPHOSPHATE KINASE (IP6K) AND METHODS OF USE THEREOF” (Lieber Institute, Inc., priority 2022, published 2025).

The series deals with Mice treated with HFD. As to conditions: HFD for 8 weeks, then daily intraperitoneal 20 mg/kg TNP and HFD for 18 days.

Turning to `O=[N+]([O-])c1ccc(CNc2nc(NCc3cccc(C(F)(F)F)c3)nc3nc[nH]c23)cc1` [TNP, N2-(m-trifluorobenzyl)-N6-(p-nitrobenzyl)purine], the “glucose tolerance and insulin sensitivity” value is “improved glucose tolerance and insulin sensitivity”; the serum insulin levels entry is reported as “lower serum insulin levels”.
